Experimental data published in US20040115167A1, “Drug delivery device and method having coated microprojections incorporating vasoconstrictors” (priority 2002, published 2004).
Like-named read-outs stand apart in the source and are kept apart here.

What was measured:
hairless guinea pig [1] = conditions: for blood flow at the application site: LDV 2 minutes after removal
Method: The Guinea pig albumin was used as a model drug or vaccine. The Guinea pig albumen and epinephrine were dry coated on the microprojections of a microprojection array. A microprojection array having long microprojections (600 microns) were chosen in order to maximize bleeding so that the efficacy of the vasoconstrictor could be more easily evaluated.
An aqueous coating solution containing 200 mg/ml of guinea pig albumin and 50 mg/ml of epinephrine bitartrate was prepared. A control solution was prepared which contained only 200 mg/mL guinea pig albumin in water and no vasoconstrictor. The microprojection arrays that were used a penetration angle of 80°. The penetration angle is defined as the angle between the two upper penetration edges of the microprojection. There were 72 microprojections/cm^2 and the overall area of the microprojection array was 2 cm^2.
One group of arrays were dipped into each solution and the excess was wicked off by briefly contacting the microprojection array with tissue. The microprojection arrays were then allowed to air-dry overnight at room temperature.
(§1) The systems that were applied comprised a coated microprojection array which was adhered to the center of a low density polyethylene (LDPE) 7 cm^2 disc, coated with a propriety adhesive. Two systems were applied to each hairless guinea pig.
(§2) At the time of application, the skin of the flank of the animal was manually stretched bilaterally (opposing forces applied on both sides of the expected application site). System application was performed with an impact applicator which applied a force of 0.4 J. Following application of the systems, the stretching tension was released.
(§3) Half of the systems were applied for 5 seconds and then removed. The second half of the systems were applied for 2 minutes and then removed. Therefore there were four test conditions with each condition having been tested with four system.
Pictures of the application skin sites were taken 2 minutes after removal of the system. The skin sites were monitored visually for 30 minutes for blanching. Bleeding was evaluated visually from the pictures by estimating the percentage of the microprojection puncture sites that were bleeding. Blood flow (mL/min/100 g) was evaluated with a laser Doppler Velocimeter (LDV) at the skin site immediately prior to application of the system and 2 minutes following removal of the system. For each guinea pig, the blood flow measurement taken prior to system application was subtracted from the second measurement (normalized blood flow).

hairless guinea pig [2] = conditions: skin sites monitored visually for 30 minutes
Method: as §1, §2, §3
Pictures of the application skin sites were taken 2 minutes after removal of the system. The skin sites were monitored visually for 30 minutes for blanching. Bleeding was evaluated visually from the pictures by estimating the percentage of the microprojection puncture sites that were bleeding. Blood flow (mL/min/100 g) was evaluated with a laser Doppler Velocimeter (LDV) at the skin site immediately prior to application of the system and 2 minutes following removal of the system. […]

CNC[C@H](O)c1ccc(O)c(O)c1 [epinephrine]
percentage of microslits that were bleeding (hairless guinea pig [1]; 5-second application, 600 micron microprojection array dry coated with guinea pig albumin 200 mg/ml + epinephrine bitartrate 50 mg/ml, pictures 2 minutes after removal): 20% | normalized blood flow (erythema at the application site) (hairless guinea pig [1]; FIG. 5, baseline blood flow subtracted): minimizes the erythema | blood flow at the application site (hairless guinea pig [1]; systems applied for 5 seconds): 30 mls/min/100 grams | blood flow at the application site (hairless guinea pig [1]; systems applied for 2 minutes): 30 mls/min/100 grams | percentage of microslits that were bleeding (hairless guinea pig [1]; two-minute application, compared with 5-second application, same coated array): little change in the data | time blanching was detectable after removal of the microprojection arrays (hairless guinea pig [2]): about 30 minutes
